# Assay results as given in US9096548B2, “Pyrazine amide compounds” (Boehringer Ingelheim International GmbH, priority 2013, dated 2015).
# Where a name gives a salt, the structure may show the parent alone.
# Target: T1, ENaC (Epithelial Sodium Channel) (Mus musculus, UniProt Q61180+Q9WU38+Q9WU39)
# T1 construct: Mouse kidney M−1 cells were cultivated in DMEM; endogenous in cells; host or cells: Mouse kidney M-1 cells, cultivated with dexamethasone on transwell filters
# T1 sequence (Q61180 1-699): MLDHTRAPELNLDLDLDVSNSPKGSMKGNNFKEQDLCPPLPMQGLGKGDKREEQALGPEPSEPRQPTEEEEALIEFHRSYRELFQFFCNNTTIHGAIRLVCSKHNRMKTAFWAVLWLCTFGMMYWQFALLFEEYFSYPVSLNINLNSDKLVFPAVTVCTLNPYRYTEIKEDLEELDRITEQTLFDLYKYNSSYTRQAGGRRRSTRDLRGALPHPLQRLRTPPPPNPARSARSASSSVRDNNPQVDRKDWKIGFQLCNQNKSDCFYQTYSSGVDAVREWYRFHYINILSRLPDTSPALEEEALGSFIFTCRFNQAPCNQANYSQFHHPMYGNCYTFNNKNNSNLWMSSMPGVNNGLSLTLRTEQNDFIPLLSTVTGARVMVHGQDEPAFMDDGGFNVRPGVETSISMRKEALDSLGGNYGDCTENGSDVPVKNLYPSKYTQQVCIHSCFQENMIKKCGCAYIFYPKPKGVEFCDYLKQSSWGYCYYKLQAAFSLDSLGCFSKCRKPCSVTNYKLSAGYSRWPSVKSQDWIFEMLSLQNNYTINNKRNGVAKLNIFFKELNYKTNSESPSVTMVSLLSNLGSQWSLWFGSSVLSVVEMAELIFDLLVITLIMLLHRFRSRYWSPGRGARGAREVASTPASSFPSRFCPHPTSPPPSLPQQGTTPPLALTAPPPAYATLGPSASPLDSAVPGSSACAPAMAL
# T1 sequence (Q9WU38 1-638): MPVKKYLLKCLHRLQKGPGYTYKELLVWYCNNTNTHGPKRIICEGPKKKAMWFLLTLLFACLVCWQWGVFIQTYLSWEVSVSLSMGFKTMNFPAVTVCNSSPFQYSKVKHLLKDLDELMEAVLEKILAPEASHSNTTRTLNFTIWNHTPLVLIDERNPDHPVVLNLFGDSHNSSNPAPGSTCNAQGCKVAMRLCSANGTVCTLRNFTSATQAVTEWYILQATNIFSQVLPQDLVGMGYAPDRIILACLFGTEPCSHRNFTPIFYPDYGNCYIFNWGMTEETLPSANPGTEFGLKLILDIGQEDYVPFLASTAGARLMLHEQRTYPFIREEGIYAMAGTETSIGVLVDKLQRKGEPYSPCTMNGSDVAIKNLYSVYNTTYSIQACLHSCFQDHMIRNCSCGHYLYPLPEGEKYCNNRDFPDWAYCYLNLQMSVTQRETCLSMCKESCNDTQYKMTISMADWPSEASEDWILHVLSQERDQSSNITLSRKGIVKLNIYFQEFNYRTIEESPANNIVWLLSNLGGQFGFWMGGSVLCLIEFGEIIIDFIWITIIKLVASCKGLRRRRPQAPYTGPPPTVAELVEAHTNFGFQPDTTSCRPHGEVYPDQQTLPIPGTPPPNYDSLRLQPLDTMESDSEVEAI
# T1 sequence (Q9WU39 1-655): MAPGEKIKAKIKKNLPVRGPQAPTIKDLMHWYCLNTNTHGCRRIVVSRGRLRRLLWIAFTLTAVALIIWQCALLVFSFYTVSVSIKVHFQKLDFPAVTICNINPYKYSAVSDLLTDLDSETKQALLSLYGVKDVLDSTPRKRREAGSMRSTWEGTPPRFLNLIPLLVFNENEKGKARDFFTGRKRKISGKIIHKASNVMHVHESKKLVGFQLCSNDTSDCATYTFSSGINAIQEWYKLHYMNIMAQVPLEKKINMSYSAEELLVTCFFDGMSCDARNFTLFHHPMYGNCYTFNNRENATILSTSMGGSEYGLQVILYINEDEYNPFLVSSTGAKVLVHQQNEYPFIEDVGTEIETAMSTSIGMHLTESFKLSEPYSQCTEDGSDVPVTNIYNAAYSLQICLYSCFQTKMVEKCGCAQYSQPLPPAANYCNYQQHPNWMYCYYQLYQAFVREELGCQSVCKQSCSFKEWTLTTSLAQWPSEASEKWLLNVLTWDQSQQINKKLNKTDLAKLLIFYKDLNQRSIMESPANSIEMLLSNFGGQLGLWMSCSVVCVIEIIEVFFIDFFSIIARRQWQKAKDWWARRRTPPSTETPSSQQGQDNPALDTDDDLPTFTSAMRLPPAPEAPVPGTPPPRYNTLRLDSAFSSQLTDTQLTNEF
# Assay: Ussing Chamber assay (short circuit current, amiloride sensitive I_SC)
# Format: cell-based
# Conditions: not given
# Protocol: The IC50 values of the example compounds given above were determined in the Ussing Chamber assay.
# Ussing Chamber: Mouse kidney M−1 cells were cultivated in DMEM containing 5% FCS and 5 μM dexamethasone for 10 to 12 days on polyester transwell filters. Filters were inserted into a teflon-coated well-plate which fit into the ussing chamber system. Prior to measurement the medium of M−1 cells was replaced with Caco-2 transport buffer (Invitrogen, Germany). During measurements, the Ussing chamber temperature was kept at 37° C. Short circuit currents (I_sc) were measured in the voltage-clamp mode with the software package Lab View for data acquisition and analysis. The transepithelial electrical resistance (TEER) was determined by the application of voltage steps of ±5 mV every 5 sec. Compounds were administered at a final concentration of 3 μM or at increasing concentrations (1-3-10 μM) to the apical solution. At the end of each experiment the amiloride sensitive I_SC was measured by adding 3 μM amiloride to the apical compartment. Results are expressed as inhibition in percent of the amiloride effect or as IC50.
row,SMILES,IC50
1,"Nc1nc(N)c(C(=O)NC2CCC[N+](CCCc3ccc(O)cc3)(CCCc3ccc(O)cc3)C2)nc1Cl (stereo not shown) [Example 6.15, 3-[(3,5-Diamino-6-chloro-pyrazine-2-carbonyl)-amino]-1,1-bis-[3-(4-hydroxy-phenyl)propyl]-piperidinium trifluoroacetate]",0.013 µM

# Same assay, conditions: Ussing chamber, mouse kidney M-1 cells, short circuit current, compound added to the apical solution; read-out: IC50
row,SMILES,IC50
1,CN1CCC(NC(=O)COc2ccc(CCC[N+]3(CCCc4ccc(OCC(=O)NC5CCN(C)CC5)cc4)CCC[C@H](NC(=O)c4nc(Cl)c(N)nc4N)C3)cc2)CC1 [Example 6.13],0.015 µM
2,C[S+]([O-])CCNC(=O)COc1ccc(CCC[N+]2(CCCc3ccc(OCC(=O)NCC[S+](C)[O-])cc3)CCC[C@H](NC(=O)c3nc(Cl)c(N)nc3N)C2)cc1 (stereo partly shown) [Example 6.45],0.039 µM
3,COCCNC(=O)COc1ccc(CCC[N+]2(CCCc3ccc(OCC(=O)NCCOC)cc3)CCC[C@H](NC(=O)c3nc(Cl)c(N)nc3N)C2)cc1 [Example 6.59],0.012 µM
4,CC(O)CN(C)C(=O)COc1ccc(CCC[N+]2(CCCc3ccc(OCC(=O)N(C)CC(C)O)cc3)CCC[C@H](NC(=O)c3nc(Cl)c(N)nc3N)C2)cc1 (stereo partly shown) [Example 6.26],0.07 µM
5,Nc1nc(N)c(C(=O)N[C@H]2CCC[N+](CCCc3ccc(OCC(=O)NCCn4ccnc4)cc3)(CCCc3ccc(OCC(=O)NCCn4ccnc4)cc3)C2)nc1Cl [6.15],0.009 µM
6,"COc1cccc(CCC[N+]2(CCCc3cccc(OC)c3)CCCC(NC(=O)c3nc(Cl)c(N)nc3N)C2)c1 (stereo not shown) [Example 10.2, 3-[(3,5-Diamino-6-chloro-pyrazine-2-carbonyl)-amino]-1,1-bis-[3-(3-methoxy-phenyl)-propyl]-piperidinium chloride]",0.027 µM
7,Nc1nc(N)c(C(=O)N[C@H]2CCC[N+](CCCc3ccc(OCC(=O)NC4CCS(=O)(=O)C4)cc3)(CCCc3ccc(OCC(=O)NC4CCS(=O)(=O)C4)cc3)C2)nc1Cl (stereo partly shown) [Example 6.23],0.035 µM
8,COc1ccc(CCC[N@@+]2(C)CCC[C@H](NC(=O)c3nc(Cl)c(N)nc3N)C2)cc1 [Example 3.2],0.07 µM
9,CN(CCC#N)C(=O)COc1ccc(CCC[N+]2(CCCc3ccc(OCC(=O)N(C)CCC#N)cc3)CCC[C@H](NC(=O)c3nc(Cl)c(N)nc3N)C2)cc1 [Example 6.29],0.105 µM
10,COC(=O)CCNC(=O)c1ccc(CCC[N+]2(CCCc3ccc(OC)cc3)CCCC(NC(=O)c3nc(Cl)c(N)nc3N)C2)cc1 (stereo not shown) [Example 5.8],0.024 µM
11,COc1ccc(CCC[N+]2(CCCc3ccc(C(N)=O)cc3)CCCC(NC(=O)c3nc(Cl)c(N)nc3N)C2)cc1 (stereo not shown) [Example 5.6],0.025 µM
12,Nc1nc(N)c(C(=O)N[C@H]2CCC[N+](CCCc3ccc(OCC(=O)NCCc4ccncc4)cc3)(CCCc3ccc(OCC(=O)NCCc4ccncc4)cc3)C2)nc1Cl [Example 6.52],0.004 µM
13,CN(C)CCN(C)C(=O)COc1ccc(CCC[N+]2(CCCc3ccc(OCC(=O)N(C)CCN(C)C)cc3)CCCC(NC(=O)c3nc(Cl)c(N)nc3N)C2)cc1 (stereo not shown) [Example 6.9],0.065 µM
14,NC(=O)COc1ccc(CCC[N+]2(CCCc3ccc(OCC(N)=O)cc3)CCCC(NC(=O)c3nc(Cl)c(N)nc3N)C2)cc1 (stereo not shown) [Example 6.4],0.072 µM
15,CO[C@H]1COC[C@@H]1NC(=O)COc1ccc(CCC[N+]2(CCCc3ccc(OCC(=O)N[C@H]4COC[C@@H]4OC)cc3)CCC[C@H](NC(=O)c3nc(Cl)c(N)nc3N)C2)cc1 [Example 6.49],0.027 µM
16,COCCCN(C)C(=O)COc1ccc(CCC[N+]2(CCCc3ccc(OCC(=O)N(C)CCCOC)cc3)CCC[C@H](NC(=O)c3nc(Cl)c(N)nc3N)C2)cc1 [Example 6.34],0.044 µM
17,Nc1nc(N)c(C(=O)N[C@H]2CCC[N+](CCCc3ccc(OCC(=O)N4CCN(CCO)CC4)cc3)(CCCc3ccc(OCC(=O)N4CCN(CCO)CC4)cc3)C2)nc1Cl [Example 6.54],0.098 µM
18,Nc1nc(N)c(C(=O)N[C@H]2CCC[N+](CCCc3ccc(OCC(=O)NCCO)cc3)(CCCc3ccc(OCC(=O)NCCO)cc3)C2)nc1Cl [Example 6.38],0.045 µM
19,CN(C)CCNC(=O)COc1ccc(CCC[N+]2(CCCc3ccc(OCC(=O)NCCN(C)C)cc3)CCCC(NC(=O)c3nc(Cl)c(N)nc3N)C2)cc1 (stereo not shown) [Example 6.5],0.05 µM
20,CN(C)C(=O)CNC(=O)COc1ccc(CCC[N+]2(CCCc3ccc(OCC(=O)NCC(=O)N(C)C)cc3)CCC[C@H](NC(=O)c3nc(Cl)c(N)nc3N)C2)cc1 [Example 6.28],0.041 µM
21,COc1ccc(CCC[N+]2(C)CC(NC(=O)c3nc(Cl)c(N)nc3N)[C@H](c3ccc(C)cc3)C2)cc1 (stereo partly shown) [Example 3.8],0.6 µM
22,COc1ccc(CCC[N+]2(CCCC3CCCCC3)CCCC(NC(=O)c3nc(Cl)c(N)nc3N)C2)cc1 (stereo not shown) [Example 3.3],0.099 µM

# Same assay, conditions: Ussing chamber, mouse kidney M-1 cells, short circuit current; unit inferred; read-out: IC50
row,SMILES,IC50
1,"CCOC(=O)C[N+]1(CCCc2ccc(OC)cc2)CCCC(NC(=O)c2nc(Cl)c(N)nc2N)C1 (stereo not shown) [Example 12, 3-[(3,5-Diamino-6-chloro-pyrazine-2-carbonyl)-amino]-1-ethoxycarbonylmethyl-1-[3-(4-methoxy-phenyl)-propyl]-piperidinium chloride]",0.15 µM
2,"Nc1nc(N)c(C(=O)N[C@H]2CCC[N+](CCCc3ccc(OCCO)cc3)(CCCc3ccc(OCCO)cc3)C2)nc1Cl [Example 9.6, (S)-3-[(3,5-Diamino-6-chloro-pyrazine-2-carbonyl)-amino]-1,1-bis-{3-[4-(2-hydroxyethoxy)-phenyl]-propyl}-piperidinium chloride]",0.038 µM

# Same assay, conditions: Ussing chamber, mouse kidney M-1 cells, short circuit current; value printed in the example text with μM; read-out: IC50
row,SMILES,IC50
1,"COC(=O)C[N+]1(CCCc2ccc(OC)cc2)CCCC(NC(=O)c2nc(Cl)c(N)nc2N)C1 (stereo not shown) [Example 14, 3-[(3,5-Diamino-6-chloro-pyrazine-2-carbonyl)-amino]-1-methoxycarbonylmethyl-1-[3-(4-methoxy-phenyl)-propyl]-piperidinium chloride]",0.137 µM
2,"COC(=O)COc1ccc(CCC[N+]2(CCCc3ccc(OCC(=O)OC)cc3)CCCC(NC(=O)c3nc(Cl)c(N)nc3N)C2)cc1 (stereo not shown) [Example 6, 3-[(3,5-Diamino-6-chloro-pyrazine-2-carbonyl)-amino]-1,1-bis-[3-(4-methoxycarbonylmethoxy-phenyl)-propyl]-piperidinium trifluoroacetate]",0.02 µM
3,"COc1ccc(CCC[N+]2(CC(=O)OC3CCCCC3)CCCC(NC(=O)c3nc(Cl)c(N)nc3N)C2)cc1 (stereo not shown) [Example 12.1, 1-Cyclohexyloxycarbonylmethyl-3-[(3,5-diamino-6-chloro-pyrazine-2-carbonyl)-amino]-1-[3-(4-methoxy-phenyl)-propyl]-piperidinium chloride]",0.21 µM
